Experimental findings from patent EP4782448A1, “SUBSTITUTED PYRIDOTRIAZOLE COMPOUND, AND PREPARATION METHOD THEREFOR AND USE THEREOF” (Origiant Pharmaceutical Co., Ltd., priority 2023, dated 2025) are described below.

Where two headings read alike, the source gives them in different places.

For orientation: IC50 means the midpoint of a concentration-inhibition curve. Broadly, the EC50 is the concentration needed to bring the measured effect to its halfway point.

One test concerns the target T1, RIPK1 Kinase (Homo sapiens, UniProt Q13546).
T1 construct: purchased Eurofins (Kinase Profiler service)
T1 sequence (Q13546 1-671): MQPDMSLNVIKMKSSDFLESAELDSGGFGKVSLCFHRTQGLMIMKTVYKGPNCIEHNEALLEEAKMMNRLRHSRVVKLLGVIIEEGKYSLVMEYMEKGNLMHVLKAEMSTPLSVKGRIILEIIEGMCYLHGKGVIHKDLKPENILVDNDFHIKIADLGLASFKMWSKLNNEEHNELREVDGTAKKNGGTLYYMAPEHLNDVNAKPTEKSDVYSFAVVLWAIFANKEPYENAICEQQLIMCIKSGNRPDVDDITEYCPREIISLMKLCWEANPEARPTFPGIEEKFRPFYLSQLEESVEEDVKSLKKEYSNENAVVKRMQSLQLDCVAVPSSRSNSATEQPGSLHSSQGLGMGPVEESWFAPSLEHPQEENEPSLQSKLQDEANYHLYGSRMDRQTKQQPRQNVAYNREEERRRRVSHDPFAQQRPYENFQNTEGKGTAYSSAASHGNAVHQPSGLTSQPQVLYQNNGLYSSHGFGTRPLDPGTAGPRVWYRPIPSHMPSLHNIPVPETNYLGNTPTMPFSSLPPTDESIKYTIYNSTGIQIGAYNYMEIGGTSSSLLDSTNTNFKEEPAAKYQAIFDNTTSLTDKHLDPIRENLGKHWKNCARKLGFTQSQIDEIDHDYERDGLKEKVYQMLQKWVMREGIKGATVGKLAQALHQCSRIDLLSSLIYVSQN
As to the kind of experiment: biochemical.

In the next test the test system is HT-29 cells. As to the kind of experiment: In vitro assay for protection of HT-29 cells from necroptosis (TNFα/Smac mimetic/Z-VAD-FMK induction, CCK8 readout). The format is cell-based. As to conditions: read-out: HT-29 (EC50).
The next test deals with MLK2/3 kinase. As to the kind of experiment: In vitro MLK2/3 kinase assay (ADP-Glo method, ICE Bioscience). The format is biochemical. (In ADP-Glo the light output rises with the ADP produced.)
[1] abbreviates: compound 0.001-10 µM, read-out: RIPK1(IC50).
[2] abbreviates: TNFα/Smac mimetic/Z-VAD-FMK for 24 h, inhibition of necroptosis.

Protocol for MLK2/3 kinase: The in vitro MLK2/3 kinase assay utilized the ADP-Glo method provided by ICE Bioscience INC. A drug screening system based on MLK2/3 kinase was employed to evaluate the inhibiting ability of small molecule compounds against kinase activity. The experimental method is as follows: ADP-Glo Method • 1. 2 × ATP/substrate solution and 2 × kinase solution were prepared using kinase reaction buffer. • 2. 40 nL of the compound diluent was transferred into a 384-well plate using an Echo 655. After centrifugation, 2 µL of 2 × kinase solution was added to the 384-well plate, centrifuged at 1000 rpm for 1 min, and incubated at 25°C for 10 min; • 3.2 µL of 2 × substrate and ATP solution was added into the 384-well plate, centrifuged at 1000 rpm for 1 min, and incubated at 25°C for 60 min. • 4. 4 µL of ADP-Glo was transferred to a 384-well plate, centrifuged at 1000 rpm for 1 min, and incubated at 25°C for 40 min. • 5. 8 µL of test solution was transferred to a 384-well plate, centrifuged at 1000 rpm for 1 min, and incubated at 25°C for 40 min. • 6. The luminescence signal was read using a multifunctional microplate reader. • 7. Data Analysis
The IC50 (half inhibitory concentration) of a compound was obtained using the following non-linear fitting formula: Y = Bottom + (Top−Bottom)/(1+10^(∧)((LogIC50−X)*HillSlope)) [formula] • X: Compound concentration log value • Y: Compound inhibition rate (% inh)
Protocol for RIPK1 Kinase: This assay was completed using the Kinase Profiler service provided by Eurofins. The experimental method was as follows: The small molecule compound to be tested (0.001-10 µM) and the protein kinase to be tested were incubated with a buffer containing a substrate, 10 mM magnesium acetate, and [γ-^33P-ATP]. The reaction was initiated by adding a Mg\ATPmix. After incubation at room temperature for a period of time, a 3% phosphate solution was added to the buffer to terminate the reaction. Subsequently, 10 µL of the reaction mixture was quantitatively pipetted and dropped onto P30 filter paper. The paper was washed three times with 75 mM phosphate solution and once with methanol. After drying, scintillation fluid was added for scinticounting. The inhibitory activity of the compound was expressed as the half-maximal inhibitory concentration (IC50). The IC50 values were derived by fitting the inhibition rates corresponding to the respective concentration gradients.

On RIPK1 Kinase, `C[C@H](NC(=O)c1cn(C)c2ccc(-c3ccn4nc(NC(=O)CN5CC(O)CC5=O)nc4c3)cc12)c1ccc(F)cc1` (single isomer, unassigned) [Compound 3] gave an IC50 of 10 to 100 nM. Also, the EC50 with HT-29 cells (Homo sapiens, HT-29, 24 h) fell in the range of 10 to 100 nM.

`CC(=O)Nc1nc2cc(-c3ccc4c(c3)c(C(=O)NC3CCc5cc(F)ccc53)cn4C)ccn2n1` (single isomer, unassigned) [Compound 127] displayed an IC50 on RIPK1 Kinase of 100 to 1000 nM. Also, the EC50 in the test with HT-29 cells (Homo sapiens, HT-29, 24 h) was in the range of 1000 to 10000 nM.

`C[C@H](NC(=O)c1cn(C)c2ccc(-c3ccn4nc(NC(=O)CN5C6CC7CC(C6)C(O)C5C7)nc4c3)cc12)c1ccc(F)cc1` (stereo partly shown) [Compound 59]: on RIPK1 Kinase (setting [1]), the IC50 lay within 10 to 100 nM. In the test with HT-29 cells (setting [2]), the EC50 is under 1 nM.

For `C[C@H](NC(=O)c1cn(C)c2ccc(-c3ccn4nc(NC(=O)CN(C)CCO)nc4c3)cc12)c1ccc(F)cc1` [Compound 74], the IC50 on RIPK1 Kinase and against MLK2/3 kinase was 10 to 100 nM throughout.

`C[C@H](NC(=O)c1cn(C)c2ccc(-c3ccn4nc(NC(=O)CN5CCOCC5)nc4c3)cc12)c1ccc(F)cc1` [Compound 75]: the values for the IC50 against RIPK1 Kinase and on MLK2/3 kinase were 1 to 10 nM and 10 to 100 nM, respectively.

`CC(=O)Nc1nc2cc(-c3ccc4c(c3)c(C(=O)N[C@H]3CCc5ccc(F)cc53)cn4C)ccn2n1` [Compound 124] displayed an IC50 against RIPK1 Kinase of 10 to 100 nM. For the same compound, in the test on HT-29 cells (Homo sapiens, HT-29, 24 h), the EC50 lay within 1 to 10 nM.

As to `C[C@@H](c1ccc(F)cc1)N(C)C(=O)c1cn(C)c2ccc(-c3ccn4nc(NC(=O)C5CC5)nc4c3)cc12` [Compound 175], on RIPK1 Kinase, the IC50 was 10 to 100 nM. Besides, in the test with HT-29 cells (Homo sapiens, HT-29, 24 h), the EC50 is under 1 nM.

Consider `CC(c1ccc(F)cc1)n1cnc(-c2cn(C)c3ccc(-c4ccn5nc(NC(=O)C6CC6)nc5c4)cc23)n1` (stereo not shown) [Compound 210], for which the IC50 at RIPK1 Kinase (setting [1]) lay within 1000 to 10000 nM. Further, the EC50 in the test on HT-29 cells (setting [2]) fell in the range of 100 to 1000 nM.
